Laboratory results: ChEMBL document CHEMBL2384934, “Discovery of 3-phenyl-1H-5-pyrazolylamine derivatives containing a urea pharmacophore as potent and efficacious inhibitors of FMS-like tyrosine kinase-3 (FLT3)” (Bioorg Med Chem, 2013)
Calls of active or inactive are those of the source. The calls are words filed in the database; no cut-off is given here.

Tested on: MOLM-13
Experiment: Antitumor activity against human MOLM13 cells xenografted in nu/nu mouse at 1mg/kg, iv qd administered on days 1 to 5 and days 8 to 12 measured for 5 days
Format: functional, organism-based

Q: Which inhibition does the source give for CC(C)(C)c1cc(NC(=O)NCc2ccc(-c3cc(NC(=O)c4ccc(OCCN5CCOCC5)cc4)[nH]n3)cc2)no1 here?
A: Active
